Measured values taken from paper PMC4514850, “A Novel TGR5 Activator WB403 Promotes GLP-1 Secretion and Preserves Pancreatic β-Cells in Type 2 Diabetic Mice” (PLoS ONE, 2015).
pEC50: −log10 of the molar value.

Legend:
TGR5 = details: moderate bile acids; ref [22], [34]; cited from earlier work
hTGR5 = target: T1, hTGR5 (Homo sapiens, UniProt Q8TDU6); assay: human TGR5 CRE-luciferase assay in co-transfected 293T cells; assay type: cell-based
T1 construct: expressed in transfected cells; host or cells: 293T cells, transient transfection with pTGR5 (gift from Prof. Johan Auwerx)
T1 sequence (Q8TDU6 1-330): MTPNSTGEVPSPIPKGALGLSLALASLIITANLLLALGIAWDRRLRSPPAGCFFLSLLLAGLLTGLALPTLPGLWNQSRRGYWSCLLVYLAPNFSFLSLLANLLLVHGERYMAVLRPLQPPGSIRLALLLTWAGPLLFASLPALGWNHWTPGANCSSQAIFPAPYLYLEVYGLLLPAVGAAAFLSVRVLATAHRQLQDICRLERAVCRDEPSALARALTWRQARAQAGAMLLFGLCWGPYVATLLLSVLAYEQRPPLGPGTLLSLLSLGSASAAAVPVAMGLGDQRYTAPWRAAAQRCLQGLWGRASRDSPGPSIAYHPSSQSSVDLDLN
Procedure: For human TGR5 luciferase (luc) assay, 293T cells were co-transfected with pCRE-luc, pTGR5 (kind gift from Prof. Johan Auwerx, Ecole Polytechnique Fédérale de Lausanne, Lausanne, Switzerland) and pRenilla (Promega, USA). WB403 was added 5 h later. Cells were harvested after 16 h and subjected to luciferase analysis on Lumistar Optima chemiluminescent detector (BMG labtech, Germany). For cAMP testing, 293T cells transiently transfected with pTGR5 or pGPR119 (GeneCopoeia, USA) were washed by FBS-free DMEM, and stimulated with WB403 in FBS-free DMEM containing 3-isobutyl-1-methyl-xanthine (IBMX, Sigma). Cell lysates were collected 30 min later and used for cAMP ELISA assay. FLIPR Calcium 5 assay kit (Molecular Devices, USA) was used for calcium mobilization assay. 293-GPR40 stable cells (kindly provided by Prof. Naiming Zhou of Zhejiang University, Hanzhou, China) or 293 cells transient transfected with GPR120 were seeded at 50,000 cells per well in black-walled clear-bottomed 96-well plates (Costar). An equal volume of loading buffer containing Fluo 4-AM was added the following day and cells were incubated for 1 h before stimulated with compounds. Increase of the intracellular Ca^2+ concentration was monitored by Flexstation 3 system (Molecular Devices, USA).
(§1) Fig 1 WB403 activated TGR5 and promoted active GLP-1 secretion. (A) WB403 stimulated hTGR5 in CRE-luciferase report system at the concentration range of 1–20 μmol/l. (B) WB403 stimulated hTGR5 specific cAMP accumulation at the concentration range of 1–50 μmol/l. n = 3. **p<0.01, ***p<0.001 vs. DMSO (+TGR5) group. (C) The hTGR5 targeted CRE-luciferase activity of WB403 and ZY403. […] (D) Effect of WB403 and ZY403 on gallbladders of mice. Normal mice were fasted overnight and treated with compounds (200 mg/kg) or vehicle (DMSO) by ip injection. Gallbladders (GB) were removed 30 min later and volumes measured then normalized to body weight (B.W.). n = 10. **p<0.01 vs. vehicle group. (E) Structure of WB403 and ZY403. WB403 promoted GLP-1 secretion in NCI-H716 cells (F), primary enterocytes (G), and MIN6 cells (H). n = 3. *p<0.05, **p<0.01, ***p<0.001 vs. vehicle group. (I) WB403 promoted GLP-1 in ICR mice. n = 5. **p<0.01 vs. vehicle group. Values represent mean ± SEM.

gallbladders of mice = assay: gallbladder filling in normal mice; assay type: in vivo; details: 200 mg/kg ip, normal mice fasted overnight, gallbladders removed 30 min later, n = 10
Excerpt: as §1

NCI-H716 cells = assay: active GLP-1 secretion in NCI-H716 cells; assay type: cell-based, human; details: 10 μmol/l, 30 min
Procedure: Endocrine differentiation was induced by seeding NCI-H716 cells in plates coated with Matrigel (Becton Dickinson). Cells were washed with RPMI-1640 medium without FBS and incubated in the same medium containing indicated compounds at 10 μmol/l. The condition medium was collected after 30 min. GLP-1 secretion in MIN6 or primary enterocytes was conducted similarly. To isolate primary enterocytes, ileum or colon was cut into 2 cm length, rinsed by PBS (pH7.2∼7.4) before dispersed in 10 mmol/l EDTA/PBS (pH7.4) for 15 min at room temperature, followed by pipetting up and down. Enterocytes were collected by filtration through a 70 μm cell strainer. To study the effect of WB403 on GLP-1 secretion in vivo, mice in group of three were fasted overnight and orally received 0, 50, 100 mg/kg of WB403 dispersed in 0.5% CMC with a DPP-4 inhibitor (5 mg/kg). There were 5 animals in each group. 2 g/kg glucose was administrated 30 min later and blood was collected 10 min after glucose challenge.
The GLP-1 (active) ELISA kit was purchased from Millipore, and insulin ELISA kit was from Mercodia. For quantitative determination of cAMP, a competitive enzyme immunoassay kit from R&D system was used. All immunoassays were performed according to manufacturers’ instructions.

db/db mice = assay: pancreas histology (H&E, IHC) of treated db/db mice; assay type: in vivo
Procedure: Analysis of islet cell mass was performed using conventional methods. In brief, mice were sacrificed by cervical dislocation. The body part of the pancreas was rapidly excised, fixed in 10% neutral buffered formalin solution for 24 h and embedded in paraffin, then sectioned at 5 μm ready for hematoxylin and eosin (H&E) staining and immunohistochemistry staining (IHC). The latter was carried out using rabbit anti-insulin polyclonal antibody (Cat. no. 4590, 1:600) and rabbit anti-glucagon monoclonal antibody (Cat. no. 8233s, 1:200) from Cell Signaling Technology.
Fig 5 WB403 preserved the mass of pancreatic β-cells and normal distribution of α and β-cells. (A) H&E staining of pancreas from db/db mice, and statistical result. Islets were sized by the Image J analysis software on alternated pancreatic sections spaced each by 100 μm. (B) Immunohistochemical analysis of pancreatic sections by anti-insulin antibody or anti-glucagon antibody. (C) H&E staining of pancreas from HFD/STZ mice, and statistical result. Results are representative islets from each group. 1–5 in the column graph on the right represents normal mice, diabetic mice treated with vehicle, WB403 50 mg/kg, WB403 100 mg/kg, sitagliptin 100 mg/kg respectively (n = 5). *p<0.05, **p<0.01, ***p<0.001 vs. diabetes-vehicle group.

Compound: C[C@H](CCC(=O)O)[C@H]1CC[C@H]2[C@@H]3[C@H](O)C[C@@H]4C[C@H](O)CC[C@]4(C)[C@H]3C[C@H](O)[C@]12C [CA, cholicacid]
- pEC50 (TGR5): 5.11

Compound: CCc1cc(-c2nc(CCOCc3ccc(Br)cc3)cs2)ccn1 [ZY403]
- pEC50 (hTGR5; CRE-luciferase, 293T cells, Fig 1C, read-out: EC50, hTGR5 targeted CRE-luciferase activity): 5.89
- TGR5 luciferase activity in primary screen (fold increase compared to DMSO control) (hTGR5; screen of 100 compounds, S1 Fig): highest luciferase activity
- gallbladder filling (gallbladders of mice): caused gallbladder filling
- GLP-1 stimulation in NCI-H716 cells (NCI-H716 cells): did not show a strong stimulation for GLP-1 activity

Compound: N[C@@H](CC(=O)N1CCn2c(nnc2C(F)(F)F)C1)Cc1cc(F)c(F)cc1F [sitagliptin, sitagliptin phosphate, reference compound]
- islet area vs vehicle (db/db mice; H&E, after 4-week treatment): bigger islet area as compared to the vehicle mice, though no significant difference was found
- α-cell and β-cell distribution in islets (db/db mice; IHC anti-insulin / anti-glucagon): significantly reduced α-cell in the islet core area and restored the normal cell distribution pattern
